Laboratory results as given in US6894032B2, “Use of CDP-choline for the treatment of alcohol withdrawal syndrome” (Ferrer Internacional, S.A., priority 2000, dated 2005).

Assays:
[1] = tested on: patients with alcohol withdrawal syndrome; assay: Open clinical study of CDP-choline in alcohol withdrawal syndrome; assay type: in vivo, humans
Method: The progress of alcohol withdrawal syndrome was assessed in an open study conducted in 197 patients. CDP-choline was administered at doses of 500 mg/d i.m. or 600 mg/d p.o. for 60 days. […] At 60 days, 55.83% of patients had given up drinking alcohol and 31.97% of patients drank much less.

[2] = tested on: patients with alcohol withdrawal syndrome; assay: Open, randomized, comparative clinical study of CDP-choline in alcohol withdrawal syndrome versus clomethiazole and vitamin B; assay type: in vivo, humans; settings: CDP-choline 500 mg i.m. every 12 h for 30 days, then 200 mg p.o. every 8 h, plus conventional therapy; versus conventional therapy alone; 20 patients per group; at 30 days
Method: An open, randomized and comparative study on the conventional therapy of alcohol withdrawal syndrome was conducted in 40 patients. Patients were randomly distributed in two groups of 20. One of the groups was used as control and received clomethiazole and vitamin B1, B6 and B12. This treatment regimen was maintained for 8 days, and then patients were given diazepam until completion of treatment (60 days). The other group of patients received the same treatment regimen plus CDP-choline 500 mg i.m. every 12 h for the first 30 days and CDP-choline 200 mg p.o. every 8 h for the remaining 30 days.

[3] = 197 patients, 500 mg/d i.m. or 600 mg/d p.o. for 60 days, at 60 days

**Q.** `C[N+](C)(C)CCOP(=O)(O)OP(=O)([O-])OC[C@H]1O[C@@H](n2ccc(N)nc2=O)[C@H](O)[C@@H]1O` [CDP-choline, cytidine diphosphate choline] was tested. Which “anxiety, tremor, disorientation, insomnia, dysarthria, tendency to suicide and neuritic pains” value ([1]; 500 mg/d i.m. or 600 mg/d p.o. for 60 days) did it give?
**A.** significant improvement

**Q.** And the “patients who drank much less” value [1, 3]?
**A.** 31.97%

**Q.** And the “patients who had given up drinking alcohol” value [1, 3]?
**A.** 55.83%

**Q.** What about the “assessments of progress of alcohol withdrawal syndrome” value ([1]; at 30 and 60 days following treatment, p<0.001) of the same molecule?
**A.** significant differences

**Q.** And the “tremor incidence (p<0.05), cramps (p<0.05), asthenia (p<0.05), emotional lability (p<0.01), nervousness (p<0.05) and social withdrawal (p<0.05)” value [2]?
**A.** significant differences versus control
